Experimental data reported in patent US20260049089A1, “KRAS INHIBITOR COMPOUND” (SHANGHAI APEIRON THERAPEUTICS COMPANY LIMITED, priority 2022, published 2026).
Read-outs that look alike come from different tables or passages of the source.

Key:
pERK in AGS cells = assay: ERK phosphorylation cell assay, AGS; format: cell-based; settings: 3 hours compound incubation, read-out: pERK AGS_IC50
Description: (§1) • Day 1: AGS cells were seeded into a 384-well cell culture plate and incubated overnight at 37° C. with 5% CO2 in a cell culture incubator. • Day 2: Compounds were added to the plate using an Echo550 liquid handler, followed by incubation at 37° C. with 5% CO2 in a cell culture incubator for 3 hours. Subsequently, the cells were fixed with paraformaldehyde, permeabilized with methanol, and blocked with blocking buffer. A primary antibody mixture (rabbit anti-pERK, mouse anti-GAPDH) was added, and the plate was incubated overnight at 4° C. • Day 3: The primary antibodies were removed, and a secondary antibody mixture (goat anti-rabbit 800CW, goat anti-mouse 680RD) was added. The plate was incubated at room temperature in the dark. After three washes with PBST, the plate was inverted and centrifuged for 1 minute. Fluorescence signal values were read using an Odyssey CLx imaging system.
(§2) [formula] • Negative control: DMSO • Positive control: 10 μM Reference • Fitted using XLFit 5.0 with the following parameters:
(§3) [formula] • X: Log of compound concentration • Y: Mean relative expression levels of p-ERK across replicates

pERK in AsPC-1 cells = assay: ERK phosphorylation cell assay, AsPC-1; format: cell-based; settings: read-out: pERK AsPC-1_IC50
Description: [Worded in the source for another cell line; this cell line is reported under the same test.] as §1, §2, §3

[1] = Homo sapiens, ASPC1, AsPC-1 cells

IC50 (pERK in AGS cells; Homo sapiens, AGS, 3 h) [nM]	IC50 (pERK in AsPC-1 cells; [1]) [nM]	IC50 (pERK in AGS cells) [nM]	IC50 (pERK in AsPC-1 cells; AsPC-1 cells) [nM]	Compound
2180	3300	–	–	C=C1CN2CCC[C@@]2(COc2nc(N3CCC[C@@](C)(O)C3)c3cc4c(c(F)c3n2)-c2cccc3ccc(F)c(c23)CCOCCN4)C1 [Example 53, (R)-1-(3,15-difluoro-13-(((S)-2-methylenetetrahydro-1H-pyrazin-7a(5H)-yl)methoxy)-4,5,8,9-tetrahydro-7H-naphtho[1′,8′:7,8,9][1]oxa[4]azacycloundeca[5,6-g]quinazoline-11-yl)-3-methylpiperidin-3-ol]
307	2790	–	–	[2H]C([2H])([2H])N1C(=O)CCCCc2c(F)ccc3cc(O)cc(c23)-c2c1cc1c(N3CCC[C@@](C)(O)C3)nc(OC[C@@]34CCCN3C[C@H](F)C4)nc1c2F [Example 41, 3,15-Difluoro-13-(((2R,7aS)-2-fluoro-tetrahydro-1H-pyrazin-7a(5H)-yl)methoxy)-17-hydroxy-11-((R)-3-hydroxy-3-methylpiperidin-1-yl)-9-(trideuteromethyl)-4,5,6,7-tetrahydronaphtho[1′,8′:4,5,6][1]azacycloundecino[2,3-g]quinazolin-8(9H)-one]
–	–	> 10000	> 10000	CC1(O)CCCN(c2nc(OCC34CCC(CC3)CO4)nc3c(F)c4c(cc23)NCCCCCc2c(F)ccc3cc(O)cc-4c23)C1 [Example 18B, (R)-13-(((2-oxabicyclo[2.2.2]octan-1-yl)methoxy)-3,15-difluoro-11-(3-hydroxy-3-methylpiperidin-1-yl)-4,5,6,7,8,9-hexahydro-naphtho[1′,8′:4,5,6][1]azacycloundecino[2,3-g]quinazoline-17-ol]
> 10000	> 10000	–	–	C[C@@]1(O)CCCN(c2nc(OCC34CCC(CC3)OC4)nc3c(F)c4c(cc23)NCCCCCc2c(F)ccc3cc(O)cc-4c23)C1 [Example 19]
–	–	> 10000	> 10000	C=C1CN2CC(F)(F)CC2(COc2nc(N3CCC[C@@](C)(O)C3)c3cc4c(c(F)c3n2)-c2cc(O)cc3ccc(F)c(c23)CCCCCN4)C1 (single isomer, unassigned) [Example 57B]
652	1140	–	–	C=C1CN2CCCC2(COc2nc(N3CCC[C@@](C)(O)C3)c3cc4c(c(F)c3n2)-c2cc(O)cc3ccc(F)c(c23)CC/C=C\CN4)C1 (stereo partly drawn) [Example 32, (Z)-3,15-difluoro-11-((R)-3-hydroxy-3-methylpiperidin-1-yl)-13-((2-methylenetetrahydro-1H-pyrazin-7a(5H)-yl)methoxy)-4,5,8,9-tetrahydronaphtho[1′,8′:4,5,6][1]azacycloondecano[2,3-g]quinazolin-17-ol]
> 10000	> 10000	–	–	C[C@@]1(O)CCCN(c2nc(OCC34CCC(CC3)CO4)nc3c(F)c4c(cc23)NCCCCCc2c(F)ccc3cc(O)cc-4c23)C1 [Example 18A]
–	–	> 10000	> 10000	CC1(O)CCCN(c2nc(OCC(F)(F)F)nc3c(F)c4c(cc23)NCCCCCc2c(F)ccc3cc(O)cc-4c23)C1 [Example 17B, (R)-3,15-difluoro-11-(3-hydroxy-3-methylpiperidin-1-yl)-13-(2,2,2-trifluoroethoxy)-4,5,6,7,8,9-hexahydro-naphtho[1′,8′:4,5,6111]azacycloundecino[2,3-g]quinazoline-17-ol]
> 10000	> 10000	–	–	COC12CCC(COc3nc(N4CCC[C@@](C)(O)C4)c4cc5c(c(F)c4n3)-c3cc(O)cc4ccc(F)c(c34)CCCCCN5)(CC1)CC2 [Example 20A]
136	225	–	–	C=C1CN2CC(=C)CC2(COc2nc(N3CCC[C@@](C)(O)C3)c3cc4c(c(F)c3n2)-c2cc(O)cc3ccc(F)c(c23)CCCCCN4)C1 [Example 31]
–	–	2000	3100	C[C@@]1(O)CCCN(c2nc(OC[C@@]34CCCN3C[C@H](F)C4)nc3c(F)c4c(cc23)NCCOCCc2c(F)ccc3cccc-4c23)C1 (single isomer, unassigned) [Example 52A]
2.4	6.1	–	–	C=C1CN2CCC[C@@]2(COc2nc(N3CCC[C@@](C)(O)C3)c3cc4c(c(F)c3n2)-c2cc(OC(=O)CCCCCCCCC)cc3ccc(F)c(c23)CCOCCN4C)C1 [Example 51, 3,15-difluoro-11-((R)-3-hydroxy-3-methylpiperidin-1-yl)-9-methyl-13-(((S)-2-methylenetetrahydro-1H-pyrazin-7a(5H)-yl)methoxy)-4,5,8,9-tetrahydro-7H-naphtho[1′,8′:7,8,9111]oxa[4]azacycloundeca[5,6-g]quinazoline-17-yl decanoate]
5420	4530	–	–	C[C@@]1(O)CCCN(c2nc(OCC34CCCN3CC(=C(F)F)C4)nc3c(F)c4c(cc23)NCCCCCc2c(F)ccc3cc(O)cc-4c23)C1 (stereo partly drawn) [Example 29]

Compound	IC50 (pERK in AGS cells; Homo sapiens, AGS, 3 h) [nM]	IC50 (pERK in AsPC-1 cells; [1]) [nM]	IC50 (pERK in AGS cells) [nM]	IC50 (pERK in AsPC-1 cells; AsPC-1 cells) [nM]
O=C1NCCCCCc2c(F)ccc3cc(O)cc(c23)-c2c1cc1c(N3CC4CCC(C3)N4)nc(OC[C@@]34CCCN3C[C@H](F)C4)nc1c2F [Example 14, 12-((1R,5S)-3,8-diazabicyclo[3.2.1]oct-3-yl)-3,16-difluoro-14-(((2R,7aS)-2-fluorotetrahydro-1H-pyrazin-7a(5H)-yl)methoxy)-18-hydroxy-4,5,6,7,8,9-hexahydro-10H-naphtho[1′,8′:5,6,7][1]azacyclododecano[3,4-g]quinazolin-10-one]	2770	3840	–	–
O=C1CCCCCCCCc2c(F)ccc3cc(O)cc(c23)-c2c(cc3c(N4CC5CCC(C4)N5)nc(OCC45CCCN4CC(F)C5)nc3c2F)N1 [Example 10, 15-((1R,5S)-3,8-diazabicyclo[3.2.1]octan-3-yl)-3,19-difluoro-17-(((2R,7aS)-2-fluorotetrahydro-1H-pyrazin-7a(5H)-yl)methoxy)-21-hydroxy-4,5,6,7,8,9,10,11-octahydronaphtho[1′,8′:4,5,6][1]azacyclopentadecano[2,3-g]quinazolin-12(13H)-one]	–	–	> 10000	> 10000
O=C1CCCCCc2c(F)ccc3cc(O)cc(c23)-c2c(cc3c(N4CC5CCC(C4)N5)nc(OC[C@@]45CCCN4C[C@H](F)C5)nc3c2F)N1 [Example 9A, 12-((1R,5S)-3,8-diazabicyclo[3.2.1]octan-3-yl)-3,16-difluoro-14-(((2R,7aS)-2-fluorotetrahydro-1H-pyrazin-7a(5H)-yl)methoxy)-18-hydroxy-5,6,7,8-tetrahydro-4H-naphtho[1′,8′:4,5,6][1]azacyclododecino[2,3-g]quinazolin-9(10H)-one]	–	–	687	1960
C[C@@]1(O)CCCN(c2nc(OCC34CCCN3C3CC3C4)nc3c(F)c4c(cc23)NCCCCCc2c(F)ccc3cc(O)cc-4c23)C1 (stereo partly drawn) [Example 37, 3,15-Difluoro-13-((hexahydrocyclopropano[b]pyrrolizin-5a(3H)-yl)methoxy)-11-((R)-3-hydroxy-3-methylpiperidin-1-yl)-4,5,6,7,8,9-hexahydro-naphtho[1′,8′:4,5,6][1]azacycloundecino[2,3-g]quinazoline-17-ol]	546	3510	–	–
Oc1cc2c3c(c(F)ccc3c1)CCCCNc1cc3c(N4CC5CCC(C4)N5)nc(OC[C@@]45CCCN4C[C@H](F)C5)nc3c(F)c1-2 [Example 2, 10-((1R,5S)-3,8-Diazabicyclo[3.2.1]octan-3-yl)-3,14-difluoro-12-(((2R,7aS)-2-fluorotetrahydro-1H-pyrazin-7a(5H)-yl)methoxy)-5,6,7,8-tetrahydro-4H-naphtho[1′,8′:4,5,6]acridin[2,3-g]quinazolin-16-ol]	154	710	–	–
CCN1CCCc2c(F)ccc3cc(O)cc(c23)-c2c(cc3c(N4CC5CCC(C4)N5)nc(OC[C@@]45CCCN4C[C@H](F)C5)nc3c2F)C1=O [Example 13, 10-((1R,5S)-3,8-diazabicyclo[3.2.1]oct-3-yl)-7-ethyl-3,14-difluoro-12-(((2R,7aS)-2-fluorotetrahydro-1H-pyrazin-7a(5H)-yl)methoxy)-16-hydroxy-4,5,6,7-tetrahydro-8H-naphtho[1′,8′:5,6,7]acrylo[3,4-g]quinazolin-8-one]	3950	8040	–	–
O=C1NCCCc2c(F)ccc3cc(O)cc(c23)-c2c1cc1c(N3CC4CCC(C3)N4)nc(OC[C@@]34CCCN3C[C@H](F)C4)nc1c2F [Example 12, 10-((1R,5S)-3,8-diazabicyclo[3.2.1]oct-3-yl)-3,14-difluoro-12-(((2R,7aS)-2-fluorotetrahydro-1H-pyrazin-7a(5H)-yl)methoxy)-16-hydroxy-4,5,6,7-tetrahydro-8H-naphtho[1′,8′:5,6,7]acredo [3,4-g]quinazolin-8-one]	5430	> 10000	–	–
C=C1CN2CCC[C@@]2(COc2nc(N3CCC[C@@](C)(O)C3)c3cc4c(c(F)c3n2)-c2cc(O)cc3ccc(F)c(c23)CCOCCN4)C1 (single isomer, unassigned) [Example 42C]	–	–	–	101
O=C1CCCc2c(F)ccc3cc(O)cc(c23)-c2c(cc3c(N4CC5CCC(C4)N5)nc(OCC(F)(F)F)nc3c2F)N1 [Example 15, 10-((1R,5S)-3,8-diazabicyclo[3.2.1]octan-3-yl)-3,14-difluoro-16-hydroxy-12-(2,2,2-trifluoroethoxy)-5,6-dihydro-4H-naphtho[1′,8′:4,5,6]azacycloundecino[2,3-g]quinazolin-7(8H)-one]	> 10000	–	–	–
